From PubChem BioAssay AID179 (DTP/NCI, 2004)
Calls of active or inactive are those of the source.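 How the source made its calls: active means compounds giving half or more protection of infected cells from virus-caused growth loss, again on retest; inactive means the rest.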 Where a SMILES comes first, the peptide text is derived from it.

System: CEM cells HIV-1 protection, formazan growth assay
Assay: NCI AIDS Antiviral Assay
Settings: for IC50: measured here: growth of uninfected CEM cells
How it was run: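 Protection of CEM cells against HIV-1 was scored from cell growth (soluble formazan) across five concentrations, with parallel uninfected cells. Lack of protection may reflect toxicity.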

| Compound | EC50 | IC50 | outcome |
| --- | --- | --- | --- |
| O=C1c2c(O)cc(O)cc2O[C@@]12c1c(cc(O)c3c1O[C@H](c1ccc(O)cc1)[C@@H](O)C3)O[C@@H]2c1ccc(O)cc1 | 2.57 µM | 50.1 µM | – |
| O=c1[nH]c(-c2ccccc2)nc2c1OCN(Cc1ccccc1)C2 | > 115 µM | 28.8 µM | – |
| Cc1cc(C)nc(NS(=O)(=O)c2ccc(Nc3c4ccccc4nc4c(C(=O)Nc5ccc(S(=O)(=O)Nc6cc(C)on6)cc5)ccc(Cl)c34)cc2)n1 | > 46.8 µM | 41.7 µM | – |
| Cc1cc2ccc(N)nc2[nH]c1=O | > 200 µM | > 200 µM | – |
| CC(C)=CCC[C@@H](C)C1=C(O)C(Nc2ccccc2I)=C(C)C(=O)C1=O | > 200 µM | 6.76 µM | – |
| O=[N+]([O-])c1ccc2occ3c2c1CCC3 | 67.6 µM | 263 µM | – |
| N#Cc1c(N2CCCCC2)[nH]c(=O)n(-c2ccccc2)c1=S | > 200 µM | > 200 µM | – |
| Cc1ccc(C(=O)O)c(CC2Cc3c(C)cccc3C2=O)c1 (configuration not stated) | > 200 µM | 155 µM | – |
| COC(=O)C1=C(C(=O)OC)c2cc(OC)ccc2C(C(=S)N(C)C)S1 (configuration not stated) | > 200 µM | > 200 µM | – |
| Nc1[nH]c(=S)nc2snnc12 | > 200 µM | > 200 µM | – |
| COc1ccccc1/C=C1\C(=O)N(C(=O)Cc2ccccc2)N=C1C | > 15.5 µM | > 15.5 µM | – |
| Cn1c(=O)c2cc(O)cnc2n(C)c1=O | > 200 µM | > 200 µM | – |
| COc1ccc(/C(Cl)=C(\CNc2ccccn2)c2ccccc2)cc1OC | > 200 µM | > 200 µM | – |
| O=S(O)CCCCCSSSCCCCCS(=O)O | – | – | inactive |
| CCCNC(=O)N1CC(CN2CCN(c3ccccc3)CC2)O/C1=N/C(=O)Nc1ccccc1 (configuration not stated) | > 200 µM | 77.6 µM | – |
| CCOC(=O)C(NC(=O)c1ccccc1)[CH](c1ccc(OC)cc1)[Sn]([c]1ccccc1)([c]1ccccc1)[c]1ccccc1 (configuration not stated) | 34.7 µM | 81.3 µM | – |
| O=C(O)C(=C/C=C/c1ccccc1)C(=O)O | – | – | inactive |
| C=CCCC(C)N(C(=O)OC(C)(C)C)S(=O)(=O)c1ccc(C)cc1 (configuration not stated) | > 14.8 µM | > 14.8 µM | – |
| CN(C)c1ccc(/C(Br)=C2\OC(=O)c3ccccc32)cc1 | > 200 µM | 112 µM | – |
| O=C(NC/C(Br)=C/Br)Nc1cccc2ccccc12 | 148 µM | > 200 µM | – |
| CC(=O)c1cc2c3c(c1)c1cc4c(cc1c(=O)n3CC2)OCO4 | – | – | inactive |

| Compound | EC50 | IC50 | outcome |
| --- | --- | --- | --- |
| CC(C(=O)O)c1ccc(-n2nnc3c(=O)[nH][nH]c(=O)c32)cc1 (configuration not stated) | > 200 µM | > 200 µM | – |
| CCNC(=O)Cc1nc2c(N)ncnc2n1C1OC(CO)C(O)C1O (configuration not stated) | > 200 µM | 81.3 µM | – |
| O=[N+]([O-])c1ccc(S(=O)(=O)NN2CCOCC2)cc1 | > 126 µM | > 126 µM | – |
| CCOC(OCC)c1ccc(N(C)C)cc1.[C-]#[O+].[C-]#[O+].[C-]#[O+].[Cr] | > 20 µM | 3.39 µM | – |
| CC(=O)[C@@H](C)C(=O)N1C(=O)OC[C@@]12[C@@H]1CC[C@@H](C1)C2(C)C | > 200 µM | > 200 µM | – |
| Cn1cnc([N+](=O)[O-])c1Sc1nc(N)nc2nc[nH]c12 | > 200 µM | 3.39 µM | – |
| Brc1cccc[n+]1Cc1ccccc1C[n+]1ccccc1Br | > 200 µM | > 200 µM | – |
| CC(C)(C)OC(=O)NCCC(N)=S | > 646 µM | 174 µM | – |
| Cc1c(C)c2cc3c(=O)ccoc3c(C)c2oc1=O | > 20.4 µM | > 20.4 µM | – |
| N#Cc1sc2c(c1OC(=O)c1ccco1)c(=O)n(-c1ccccc1)c(=S)n2-c1ccccc1 | > 200 µM | 12.3 µM | – |
| N#Cc1cn(-c2c3ccccc3nc3ccccc23)c(=O)[nH]c1=O | > 214 µM | 0.288 µM | – |
| CCN(CC)CCOC(=O)CCN1CC2CCC(CC2)C1 | > 200 µM | > 200 µM | – |
| COc1ccc(NS(=O)c2ccc(-c3ccccc3)cc2)cc1 (configuration not stated) | > 200 µM | 14.8 µM | – |
| CCCCOC(=O)NC(Nc1ccc(S(N)(=O)=O)cc1)(C(F)(F)F)C(F)(F)F | > 200 µM | > 200 µM | – |
| CC(C)(C)C(=O)Cc1cc2c(cc1C(=O)O)S(=O)(=O)NC(C(C)(C)C)=C2 | > 479 µM | > 479 µM | – |
| NCc1ccccc1-c1c2nc(c(-c3ccccc3CN)c3ccc([nH]3)c(-c3ccccc3CN)c3nc(c(-c4ccccc4CN)c4ccc1[nH]4)C=C3)C=C2 | > 9.77 µM | > 9.77 µM | – |
| N=C1N(c2ccccc2)C(=O)C23CCCC2C13N1CCOCC1 (configuration not stated) | > 219 µM | > 219 µM | – |
| O=C1CCCC2=C1CC1=C(CCCC1=O)N2c1cccc([N+](=O)[O-])c1 | > 186 µM | 170 µM | – |
| N#C[C@@H](c1nc2ccccc2s1)c1ncccc1[N+](=O)[O-] | > 200 µM | 20 µM | – |
| CC(C)(C)OC(=O)NCCCCC(NC(=O)OCc1ccccc1)C(N)=O (configuration not stated) | > 200 µM | > 200 µM | – |
| O=C(O)CN1CCN(CC(=O)N2CCN(C(=O)OCc3ccccc3)CC2)CCN(CC(=O)O)CCN(CC(=O)N2CCN(C(=O)OCc3ccccc3)CC2)CC1 | > 200 µM | > 200 µM | – |

| Compound | EC50 | IC50 | outcome |
| --- | --- | --- | --- |
| CC(C)/C=C/c1cc(/C=C/C(=O)c2cc(/C=C/C(C)C)c(O)cc2O)ccc1O | – | – | inactive |
| O=C(CCn1ccnc1)N1CCN(c2ccccc2)CC1 | > 871 µM | 646 µM | – |
| NC(N)=NNCCOc1c(Cl)cccc1Cl | > 200 µM | 91.2 µM | – |
| COC(=O)/C(=C\Nc1cccc(C)n1)S(=O)(=O)c1ccc(C)cc1 | > 200 µM | 66.1 µM | – |
| CC(=O)NC(CCCNC(=O)N(C)N=O)C(=O)NCc1ccccc1 (configuration not stated) | > 708 µM | > 708 µM | – |
| CC(=O)c1sc2c(c1OC(=O)c1ccc(Cl)cc1Cl)c(=O)n(-c1ccccc1)c(=S)n2-c1ccccc1 | > 200 µM | 0.0631 µM | – |
| COC(=O)CCC(C)C1CCC2C3=CC(=O)C4CC(OC(C)=O)CCC4(C)C3CC(OC(C)=O)C21C (configuration not stated) | > 51.3 µM | 37.2 µM | – |
| O=C1NC(=O)C(Cc2cccc(OCc3ccccc3)c2)C(=O)N1 | > 200 µM | > 200 µM | – |
| O=C1COc2cc3c(cc2N1)SCCC(=O)N3 | > 39.8 µM | > 39.8 µM | – |
| CCOC(=O)C(C)(NC(=O)c1ccc(NCc2ccc3nc(NC(=O)c4ccccc4)nc(NC(=O)c4ccccc4)c3c2)cc1)C(=O)OCC | > 50.1 µM | 32.4 µM | – |
| COC12C=CC(CC1)C1=C2C(=O)c2nc(C)c(C)nc2C1=O (configuration not stated) | > 63.1 µM | 39.8 µM | – |
| CC1(C)CN2Cc3cccc(n3)CN(CC(C)(C)[N-]C(=O)C(C)(OCc3ccccc3)C2)CC(C)(OCc2ccccc2)C(=O)[N-]1.[Cu+2] (configuration not stated) | > 200 µM | 117 µM | – |
| COc1ccc(Nc2nc(NNC(=O)Cc3ccccc3)nc(NNC(=O)c3ccncc3)n2)cc1 | > 178 µM | 174 µM | – |
| CCOP(=O)(OCC)C(Cc1cn(S(=O)(=O)c2ccc(C)cc2)cn1)C(=O)O (configuration not stated) | > 200 µM | > 200 µM | – |
| Oc1c(C2=NNC(c3cccs3)C2)ccc2ccccc12 (configuration not stated) | > 200 µM | 33.1 µM | – |
| N/N=C1/CCN2CCCc3cccc1c32 | > 200 µM | 182 µM | – |
| O=C1NC(=O)C2C(=O)NC(=O)C1C2(c1ccccc1)c1cc[nH]c1 (configuration not stated) | > 22.4 µM | 16.6 µM | – |
| NC(=O)NC1=NCCC(=O)N1CCc1c[nH]c2ccccc12 | > 200 µM | 12.3 µM | – |
| Cc1ccc(C2(Br)C(=O)c3ccccc3C2=O)cc1 | > 200 µM | > 200 µM | – |
| OCC(O)CNc1ccnc2cc(Cl)ccc12 (configuration not stated) | > 631 µM | 117 µM | – |
| O=c1[nH]c(=O)n2n1CC(Br)C(Br)C2 (configuration not stated) | – | – | inactive |

| Compound | EC50 | IC50 | outcome |
| --- | --- | --- | --- |
| CC1=CCC[C@H]2[C@](C)(CC3=CC(=O)C(Sc4ccccc4)=CC3=O)[C@@H](C)CC[C@]12C | > 200 µM | 1.32 µM | – |
| CCOC(=O)c1nc(SC)sc1NC(=O)c1ccc([N+](=O)[O-])cc1 | > 200 µM | > 200 µM | – |
| CC12CCC(=O)CC13CCC2OC(O)C3 (configuration not stated) | – | – | inactive |
| NNC(=O)c1ccncc1 | > 200 µM | > 200 µM | – |
| CCOC(=O)/C(=C1/Nc2ccccc2S1)c1ncnc2nc[nH]c12 | – | – | inactive |
| Nc1ccc2cc(S(=O)(=O)O)cc(O)c2c1N=Nc1ccc(-c2ccc(N=Nc3c(S(=O)(=O)O)cc4cc(S(=O)(=O)O)c(N=Nc5ccc([N+](=O)[O-])cc5)c(N)c4c3O)cc2)cc1 | – | – | inactive |
| CCN(CC)c1ccc(N=C2C=CC(=C(C#N)C#N)c3ccccc32)c(C)c1 | – | – | inactive |
| CC(=O)NC1C(=O)N(c2ccccc2)C1c1ccccc1 (configuration not stated) | > 178 µM | > 178 µM | – |
| CCCCCCCCCCCCCC(=O)OCC1OC(n2cc(C)c(=O)[nH]c2=O)CC1N=[N+]=[N-] (configuration not stated) | 0.00372 µM | 102 µM | – |
| COc1ccc(/C=C/C(=O)CC(=O)/C=C/c2ccc(OC)cc2)cc1 | > 200 µM | > 200 µM | – |
| CCC(C)[C@@H]1NC(=O)[C@@H]2CCCN2C(=O)C(CC(O)CCl)OC(=O)CCNC(=O)[C@H](C)N(C)C(=O)[C@H](C(C)C)N(C)C1=O (some centres not stated) (HELM PEPTIDE1{[CCC(C)[C@H](N[*:1])C(=O)[*:2]].[meV].[meA].[bAla].[O=C(C(CC(O)CCl)O[*:1])[*:2]].P}$PEPTIDE1,PEPTIDE1,1:R1-6:R2$$$V2.0) | > 2 µM | 0.11 µM | – |
| CCOC(=O)/C=C(/N=P(c1ccccc1)(c1ccccc1)c1ccccc1)C(F)(F)F | > 200 µM | 13.8 µM | – |
| C[C@@H](COCP(=O)(O)O)n1cnc2c(N)ncnc21 | > 200 µM | > 200 µM | – |
| [Cu+2].[O-]/C(=N\N=C\c1ccccn1)c1ccccc1O.[O-]/C(=N\N=C\c1ccccn1)c1ccccc1O | > 200 µM | 10.2 µM | – |
| Cc1cc(C)nc(NS(=O)(=O)c2ccc(NNc3c4ccccc4nc4c(C(=O)Nc5ccc(S(N)(=O)=O)cc5)cccc34)cc2)n1 | > 200 µM | 11 µM | – |
| O=S1(=O)CCc2ccccc2C(Br)C1 (configuration not stated) | > 200 µM | > 200 µM | – |
| Cc1nc2ccccc2c(=O)n1NC(=S)Nc1ccccc1 | > 115 µM | 107 µM | – |
| Cc1cc(C)c(C(=O)c2ccccc2C(=O)O)c(C)c1 | > 200 µM | > 200 µM | – |
| O=c1cc(O)c2c(O)cc(O)cc2o1 | > 200 µM | > 200 µM | – |
| O=C(C=P(c1ccccc1)(c1ccccc1)c1ccccc1)c1ccccc1-c1ccccc1C(=O)C=P(c1ccccc1)(c1ccccc1)c1ccccc1 | > 1 µM | 0.107 µM | – |
